Active and inactive are the calls of the source. Where only a bound is given, the exact number is not on record here.

Test [1] addresses T1, Cannabinoid receptor 1 (Homo sapiens, UniProt P21554). As to the kind of experiment: SAR analysis of antagonists of the Cannabinoid Receptor 1 using an Image-Based Assay - Set 4. [Related pubchem assays (depositor defined):AID2013, AID2026]. It is filed as functional.
For test [2], the target named is G-protein coupled receptor 55 (Homo sapiens, UniProt Q9Y2T6). The test is described as follows: SAR Analysis of Selective Antagonists of GPR55 using an Image-Based Assay - Set 4. [Related pubchem assays (depositor defined):AID2013, AID2026]. Format: functional.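 Also: antagonism of response to 5 µM lysophosphatidylinositol agonist.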
Chain of G-protein coupled receptor 55 (Q9Y2T6 whole entry): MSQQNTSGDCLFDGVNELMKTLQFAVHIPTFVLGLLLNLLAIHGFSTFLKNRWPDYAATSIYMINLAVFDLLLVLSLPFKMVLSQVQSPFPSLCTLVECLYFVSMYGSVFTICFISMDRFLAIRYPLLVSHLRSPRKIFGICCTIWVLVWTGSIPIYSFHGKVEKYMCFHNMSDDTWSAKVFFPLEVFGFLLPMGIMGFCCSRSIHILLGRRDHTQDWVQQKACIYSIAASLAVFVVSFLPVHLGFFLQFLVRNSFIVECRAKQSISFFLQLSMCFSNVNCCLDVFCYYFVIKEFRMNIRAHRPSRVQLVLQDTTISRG
The target of test [3] is T2, Cannabinoid receptor 2 (Homo sapiens, UniProt P34972). The test is described as follows: SAR analysis of antagonists of the Cannabinoid Receptor 2 using an Image-Based Assay - Set 3. [Related pubchem assays (depositor defined):AID2013, AID2026]. Format: functional.
T2 sequence (P34972 whole entry): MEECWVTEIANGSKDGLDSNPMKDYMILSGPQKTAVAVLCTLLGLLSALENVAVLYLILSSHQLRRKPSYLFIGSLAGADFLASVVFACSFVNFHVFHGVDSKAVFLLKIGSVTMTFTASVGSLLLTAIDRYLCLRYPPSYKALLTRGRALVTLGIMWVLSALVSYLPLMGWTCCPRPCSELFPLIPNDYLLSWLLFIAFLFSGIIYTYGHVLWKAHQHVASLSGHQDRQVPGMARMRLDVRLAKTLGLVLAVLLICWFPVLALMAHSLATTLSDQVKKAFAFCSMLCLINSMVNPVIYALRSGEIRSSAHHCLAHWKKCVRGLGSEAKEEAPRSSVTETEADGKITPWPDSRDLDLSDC
The target of test [4] is T1, Cannabinoid receptor 1. The test is described as follows: SAR analysis of agonists of the Cannabinoid Receptor 1 using an Image-Based Assay - Set 4. [Related pubchem assays (depositor defined):AID2013, AID2026]. It is filed as functional.
The target of test [5] is T3, G-protein coupled receptor 35 (Homo sapiens, UniProt Q9HC97). As to the kind of experiment: SAR analysis of Antagonists of the GPR35 Receptor using an Image-Based Assay - Set 6. [Related pubchem assays (depositor defined):AID2013, AID2026]. Format: functional.
T3 sequence (Q9HC97 whole entry): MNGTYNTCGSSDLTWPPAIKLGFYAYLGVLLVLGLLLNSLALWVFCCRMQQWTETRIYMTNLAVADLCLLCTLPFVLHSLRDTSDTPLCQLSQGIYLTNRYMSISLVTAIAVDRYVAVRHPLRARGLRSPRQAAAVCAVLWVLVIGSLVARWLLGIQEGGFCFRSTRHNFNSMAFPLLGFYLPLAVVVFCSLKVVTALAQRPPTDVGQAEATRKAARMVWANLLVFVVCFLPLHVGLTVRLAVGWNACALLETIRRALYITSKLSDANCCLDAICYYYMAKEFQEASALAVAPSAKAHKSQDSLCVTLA
Test [6] addresses T2, Cannabinoid receptor 2. As to the kind of experiment: SAR analysis of agonists of the Cannabinoid Receptor 2 using an Image-Based Assay - Set 3. [Related pubchem assays (depositor defined):AID2013, AID2026]. It is filed as functional.
For test [7], the target named is T3, G-protein coupled receptor 35. As to the kind of experiment: SAR analysis of Agonists of the GPR35 Receptor using an Image-Based Assay - Set 4. [Related pubchem assays (depositor defined):AID2013, AID2026]. Format: functional.
A short description of test [8]: A small molecule screen for inhibitors of the PhoP region in Salmonella typhi (5) using purified and synthesized compounds. [Related pubchem assays (depositor defined):AID1850, AID1864, AID1985, AID2252, AID2384, AID2612, AID2811, AID434995]. Format: functional.
The subject of test [9] is Streptococcus. The test is described as follows: GAS UMAA2166 growth inhibition – luminescence, BacTiterGlo, counter-screen for streptokinase expression inhibitor project, dose response (AID 1915).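 Also: potency for reduction of bacterial viability or growth.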 Format: functional, organism-based. On the technique in general: The purpose of a counterscreen is to sort out artefacts and off-target activity.
Test [10] in a line: alpha-synuclein stem-loop luciferase translation blockers – H4 neuroglioma cells, luminescence, confirmation (AID 1988). It is filed as functional, cell-based.
The target of test [11] is T4, Ubiquitin-conjugating enzyme E2 N (Homo sapiens, UniProt P61088).
T4 sequence (P61088 whole entry): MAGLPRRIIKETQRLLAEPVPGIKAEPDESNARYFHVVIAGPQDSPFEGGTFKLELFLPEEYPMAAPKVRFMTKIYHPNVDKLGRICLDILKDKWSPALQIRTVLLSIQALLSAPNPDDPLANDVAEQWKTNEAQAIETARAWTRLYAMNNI
It is filed as functional.

Test [12] in a line: luciferase reporter signal suppression in cells – H4 neuroglioma cells, luminescence, dose response (AID 1990). It is filed as functional, cell-based. A general note: A reporter such as luciferase makes a cellular process visible.
For test [13], the target named is T5, Bcl-2-related protein A1 (Mus musculus, UniProt Q07440).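 Also: confirmatory dose–response counterscreen on Bfl-1, used to check hits from a UBC13 polyubiquitin inhibitor campaign.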
T5 sequence (Q07440 whole entry): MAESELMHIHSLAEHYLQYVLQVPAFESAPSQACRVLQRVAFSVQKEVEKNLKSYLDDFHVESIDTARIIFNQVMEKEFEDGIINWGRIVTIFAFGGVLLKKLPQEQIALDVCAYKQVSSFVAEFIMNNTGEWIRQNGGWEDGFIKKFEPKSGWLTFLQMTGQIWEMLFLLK
It is filed as functional.

The nature of test [14]: Luminescence Cell-Based Dose Response HTS to Identify Inhibitors of 5'UTR Stem-Loop Driven Prion Protein mRNA Translation in H4 Neuroglioblastoma Cells. [Related pubchem assays: 1827 (Project Summary), 1813 (Primary HTS)]. Format: functional.
The target in test [15] is T4, Ubiquitin-conjugating enzyme E2 N. Format: functional. This is another data set of the same source.
Test [16] deals with Nonstructural protein 1 (Influenza A virus, UniProt Q194T2). It is filed as functional, Influenza A virus (A/California/07/2009(H1N1)).
Chain of Nonstructural protein 1 (Q194T2 whole entry): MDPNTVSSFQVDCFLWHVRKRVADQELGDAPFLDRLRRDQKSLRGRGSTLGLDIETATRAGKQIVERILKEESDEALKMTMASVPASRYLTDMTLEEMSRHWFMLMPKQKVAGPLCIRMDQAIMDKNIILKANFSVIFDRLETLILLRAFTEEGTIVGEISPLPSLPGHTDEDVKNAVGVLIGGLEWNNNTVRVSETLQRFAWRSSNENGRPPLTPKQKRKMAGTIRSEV
For test [17], the system named is Streptococcus sp. 'group A'. As to the kind of experiment: Streptococcus pyogenes SK(-)GAS viability under kanamycin – luminescence, BacTiterGlo, confirmation, counter-screen for streptokinase expression inhibitor project, dose response (AID 1900). Format: functional, organism-based.
The target in test [18] is T6, Apoptotic protease-activating factor 1 (Homo sapiens, UniProt O14727).
T6 sequence (O14727 whole entry): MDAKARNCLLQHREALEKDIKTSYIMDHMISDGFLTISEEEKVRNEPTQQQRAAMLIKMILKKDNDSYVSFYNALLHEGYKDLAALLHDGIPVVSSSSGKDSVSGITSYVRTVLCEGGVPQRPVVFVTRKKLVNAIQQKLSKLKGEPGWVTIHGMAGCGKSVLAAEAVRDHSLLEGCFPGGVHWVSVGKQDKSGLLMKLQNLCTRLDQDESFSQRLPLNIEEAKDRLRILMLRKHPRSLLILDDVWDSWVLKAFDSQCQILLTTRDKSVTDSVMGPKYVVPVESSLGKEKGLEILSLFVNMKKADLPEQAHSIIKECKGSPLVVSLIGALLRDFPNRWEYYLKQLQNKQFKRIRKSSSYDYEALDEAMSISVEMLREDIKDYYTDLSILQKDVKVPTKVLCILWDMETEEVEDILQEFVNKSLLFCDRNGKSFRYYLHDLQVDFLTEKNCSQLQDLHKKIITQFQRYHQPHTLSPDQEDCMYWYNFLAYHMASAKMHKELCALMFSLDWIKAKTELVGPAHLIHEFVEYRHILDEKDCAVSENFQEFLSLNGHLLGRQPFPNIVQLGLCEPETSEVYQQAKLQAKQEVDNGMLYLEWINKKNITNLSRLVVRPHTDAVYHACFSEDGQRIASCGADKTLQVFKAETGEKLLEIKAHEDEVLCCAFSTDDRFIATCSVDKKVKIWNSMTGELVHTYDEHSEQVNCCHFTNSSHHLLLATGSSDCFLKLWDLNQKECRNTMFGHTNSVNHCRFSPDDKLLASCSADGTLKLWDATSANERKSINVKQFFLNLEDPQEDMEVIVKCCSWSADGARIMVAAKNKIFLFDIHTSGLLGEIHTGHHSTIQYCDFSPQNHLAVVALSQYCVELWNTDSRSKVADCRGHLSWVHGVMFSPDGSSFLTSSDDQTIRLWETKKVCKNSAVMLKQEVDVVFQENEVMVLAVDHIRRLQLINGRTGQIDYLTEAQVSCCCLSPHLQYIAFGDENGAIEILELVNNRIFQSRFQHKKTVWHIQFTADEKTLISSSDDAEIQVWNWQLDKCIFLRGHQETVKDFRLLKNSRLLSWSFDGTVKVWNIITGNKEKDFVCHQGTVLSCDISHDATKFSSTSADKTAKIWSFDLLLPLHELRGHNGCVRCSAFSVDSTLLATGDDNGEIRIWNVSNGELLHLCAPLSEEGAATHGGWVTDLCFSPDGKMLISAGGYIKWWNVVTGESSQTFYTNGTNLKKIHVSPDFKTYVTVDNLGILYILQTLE
It is filed as functional.

T1 sequence (P21554 whole entry): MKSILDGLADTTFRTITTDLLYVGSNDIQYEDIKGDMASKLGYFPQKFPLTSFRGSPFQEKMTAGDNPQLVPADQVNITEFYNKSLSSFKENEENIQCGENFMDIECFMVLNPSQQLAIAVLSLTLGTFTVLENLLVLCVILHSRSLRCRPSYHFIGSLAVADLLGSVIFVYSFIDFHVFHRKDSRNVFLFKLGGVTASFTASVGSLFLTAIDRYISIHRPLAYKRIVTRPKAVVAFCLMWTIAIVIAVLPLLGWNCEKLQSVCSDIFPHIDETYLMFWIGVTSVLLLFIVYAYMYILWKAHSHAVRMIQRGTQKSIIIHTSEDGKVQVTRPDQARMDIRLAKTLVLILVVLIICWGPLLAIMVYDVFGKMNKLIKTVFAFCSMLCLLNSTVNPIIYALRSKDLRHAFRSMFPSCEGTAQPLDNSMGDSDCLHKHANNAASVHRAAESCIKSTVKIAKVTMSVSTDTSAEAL

Turning to `Cc1ccc2nc(-c3ccccn3)cc(C(=O)Nc3ccc(S(=O)(=O)N4CCOCC4)cc3)c2c1`, the IC50 – broadly, the concentration that inhibits the measured activity by half – in test [1] is 5.37 µM (active); in test [2], > 32 µM (inactive); in test [3], > 32 µM (inactive); in test [5] it was > 32 µM (inactive). For the same compound, the EC50 in test [4], in test [6] and in [7] was > 32 µM (inactive) throughout.
For the compound `O=C1C2=C(Nc3ccccc3SC2c2cccnc2)c2ccccc21` (stereo not drawn), the IC50 in test [8] is > 150 µM (active).
In the case of `N=C(N)N/N=C/c1ccc(OCc2ccccc2)c(OCc2ccccc2)c1`, the EC50 (in general, the concentration giving half of the maximal effect) in [9] was 8.86 µM (active); in test [10], 19.9 µM (active); in test [12], 8.78 µM (active); in [14], > 120 µM (not active); in [17], 5.75 µM (active). The IC50 is 5.05 µM (active) in [11]; 16 µM (active) in test [13]; 6.15 µM (active) in test [15]; 49 µM (active) in test [16]; > 100 µM (inactive) in [18].

These data come from ChEMBL document CHEMBL1201862, “PubChem BioAssay data set” (2004).
